≈ marks a conversion by molar mass, not a printed value.
How the values were obtained:
Type in all cases: physicochemical
[1] = Variable humidity XRPD (VH-XRPD); conditions: between 0 and 90% RH
Experimental: […] analysis was carried out on a Philips X'Pert Pro Multipurpose diffractometer equipped with a humidity chamber. The samples were scanned between 4 and 35.99°2θ using Cu K radiation (α1λ=1.54060 Å; α2=1.54443 Å; β=1.39225 Å; α1; α2 ratio=0.5) running in Bragg-Brentano geometry (step size 0.008°2θ) using 40 kV/40 mA generator settings. Table 10 details the humidity program used.

[2] = Storage stability of Compound 3 forms (80° C., 40° C./75% RH, 25° C./60% RH, ambient); conditions: for 1 week stability: 40° C./75% RH XRPD (uncapped): WC = weakly crystalline
Experimental: No changes by XRPD or HPLC purity were observed when the material was stored at 40° C./75% RH, 80° C. or under ambient conditions.

[3] = Hydration study in 2-propanol/water systems
Experimental: A hydration study of Compound 3 Form A was conducted using 4 different aw 2-propanol/water solvent systems. Approximately 20 mg of Compound 3 Form A was weighed into four 2 mL glass vials. An appropriate volume of solvent system was added to the solids and samples were agitated for about 48 hours under ambient conditions. After 48 hours, solids were isolated using centrifuge filtration and analyzed by XRPD. […] (FIG. 32)

[4] = Milling of Form A; conditions: 2 min milling (5000 RPM); initial and repeat runs
Experimental: Compound 3 Form A material was milled using a Precellys® Evolution SUPER Homogenizer. Approximately 50 mg of Compound 3 Form A was weighed into 2×plastic 2 mL bead mill vials and 5×2.4 […] metal beads were placed into each vial. Sample 1 was milled using the following: RPM=5000; Cycles=2×60 seconds; Pause=10 seconds (between cycles). Sample 2 was milled using the above method but 5×60 seconds cycles instead of2×60 seconds. After milling, a sub-sample was taken from each and analyzed by XRPD and PLM. The above procedure was repeated and the resulting samples were analyzed by XRPD and DSC analysis.

[5] = Compression of Form A (2.5 KN, 5.0 KN); conditions: initial and repeat
Experimental: Compound 3 Form A material was compressed using a specac press. Approximately 125 mg of Compound 3 Form A was weighed into a 20 mL glass vial. The material was then transferred into an IR die and pressed to 2.5 KN for approx. 5 seconds. The resulting material was (ground lightly to break the disk that was returned and) analyzed by XRPD and PLM. The material was then placed back into the die and pressed to 5.0 KN (for approx. 5 seconds). The resulting material was ground lightly to break the disk that was returned and analyzed by XRPD and PLM. The procedure detail was repeated, using separate batches of solid for 2.5 KN and 5.0 KN experiments. XRPD analysis and PLM analysis was completed on the material returned after pressing. All samples returned Form A material by XRPD and consisted of small birefringent particles with no clear morphology by PLM (FIG. 35A-FIG. 35C).

[6] = Differential scanning calorimetry (DSC); conditions: for DSC: Melting: onset; for DSC: Melting / DSC: Melting (peak): Table 27A
Experimental: DSC was performed using a TA Instruments 2920 or Q2000 differential scanning calorimeter. Temperature calibration was performed using NIST-traceable indium metal. The sample was placed into an aluminum DSC pan, covered with a lid, and the weight was accurately recorded. A weighed aluminum pan configured as the sample pan was placed on the reference side of the cell. The method code on the thermogram is an abbreviation for the start and end temperature as well as the heating rate; e.g., -30-250-10 means “from −30° C. to 250° C., at 10° C./min”. The following table summarizes the abbreviations used in each image for pan configurations: […]

[7] = Storage stability of Compound 3 forms (80° C., 40° C./75% RH, 25° C./60% RH, ambient)
[8] = pH experiments and SIF/SGF/FaSSIF/FeSSIF solubility (Examples 3 and 4)
[9] = Solvent experiments (solubility, Example 3)
[10] = Polymorph study: evaporation
Experimental: Saturated solutions of Compound 3 produced from temperature cycling experiments were evaporated under ambient conditions. After approximately 4 days, observations were made, and solids recovered were analyzed by XRPD (Table 21).

[11] = Grinding study; conditions: pestle and mortar
Experimental: 10 mg of the appropriate Compound 3 material (detailed in Table 28) was weighed into separate HPLC vials. The solids were then ground using a pestle and mortar. Resulting materials were analyzed by XRPD (FIG. 47). From samples where mixtures of forms were used, mixtures of forms were recovered. Where all 3 forms were used, Form A was not returned, although it is possible that the already small particle size of Form A was reduced further by grinding and therefore not detected by XRPD analysis.

[12] = Polarized light microscopy (PLM); conditions: Table 27A
Experimental: The presence of crystallinity (birefringence) was determined using an Olympus BX50 microscope, equipped with cross-polarizing lenses and a Motic camera. Images were captured using Motic Images Plus 2.0. All images were recorded using the 20×objective, unless otherwise stated. All samples were prepared using silicone oil and covered with a cover slip before PLM analysis was completed.

CC(=O)c1nn(CC(=O)N2[C@H](C(=O)Nc3nc(Br)ccc3C)C[C@@]3(C)C[C@@H]23)c2ccc(-c3cnc(C)nc3)cc12 [Compound 3 Form A]
VH-XRPD: change in form with humidity [1]: no changes in form | 1 week stability: 40° C./75% RH HPLC (uncapped) ([2]; 1 week): 99.7% (by % (by relative area) | 1 week stability: 80° C. HPLC (capped) ([2]; 1 week): 99.7% (by % (by relative area) | 1 week stability: 80° C. XRPD (capped) ([2]; 1 week): Form A | 1 week stability: 40° C./75% RH XRPD (uncapped) ([2]; 1 week): WC Form A | Stability: form by XRPD after storage ([2]; 25° C./60% RH, capped vial): Form A | Stability: form by XRPD after storage ([2]; 40° C./75% RH (uncapped)): predominantly Form A | Stability: purity change after storage ([2]; 40° C./75% RH (uncapped)): no purity change | Stability: form by XRPD after storage (repeat study) ([2]; 40° C./75% RH, capped and uncapped vials): weakly crystalline (WC) Form A | Stability: purity by HPLC (relative area) ([2]; 80° C.): no reduction in purity | Hydration study: XRPD results ([3]; Water activity (aw) 0.354, 2-propanol/water, about 48 hours, ambient): Form A | Hydration study: XRPD results ([3]; Water activity (aw) 0.526): Form A | Hydration study: XRPD results ([3]; Water activity (aw) 0.704): Predominantly amorphous | Hydration study: XRPD results ([3]; Water activity (aw) 0.910): Predominantly amorphous | Milling: XRPD [4]: Amorphous | Compression: XRPD ([5]; 2.5 KN): Form A | Compression: XRPD ([5]; 5.0 KN): Form A | Thermal events from SSCI report: Melt ([6]; SSCI report): Melt 133-150 °C | DSC: Melting [6]: Melting 138 °C (peak | DSC: Melting (peak) [6]: 151.4° C.) | 1 week stability: 25° C./60% RH XRPD (uncapped) ([7]; 1 week, WC = weakly crystalline): WC Form A | Stability: form by XRPD after storage ([7]; 25° C./60% RH, uncapped vial): weakly crystalline Form A

CC(=O)c1nn(CC(=O)N2[C@H](C(=O)Nc3nc(Br)ccc3C)C[C@@]3(C)C[C@@H]23)c2ccc(-c3cnc(C)nc3)cc12 [Compound 3, (1R,3S,5R)-2-(2-(3-acetyl-5-(2-methylpyrimidin-5-yl)-1H-indazol-1-yl)acetyl)-N-(6-bromo-3-methylpyridin-2-yl)-5-methyl-2-azabicyclo[3.1.0]hexane-3-carboxamide]
pH Experiments (solubility) ([8]; 1.2 pH): 389.37 μg/mL | pH Experiments: stability in the medium ([8]; 1.2 pH): degrades | pH Experiments (solubility) ([8]; 4.0 pH): 56.68 μg/mL | pH Experiments (solubility) ([8]; 6.0 pH): 54.60 μg/mL | pH Experiments (solubility) ([8]; 7.4 pH): 53.41 μg/mL | solubility ([8]; FaSSIF, read-out: FaSSIF solubility): 75.4 µg/mL (≈ 125 µM) | solubility ([8]; FeSSIF, read-out: FeSSIF solubility): 153 µg/mL (≈ 254 µM) | pH Experiments (solubility) ([8]; SGF pH = 1.6): 96.35 μg/mL | pH Experiments (solubility) ([8]; SIF pH = 6.5): 80.77 μg/mL | solubility ([9]; DMSO, organic solvent or mixture): 104000 µg/mL (≈ 173000 µM) | solubility ([9]; UPLC Water): 1040 µg/mL (≈ 1730 µM) | solubility ([9]; acetone, organic solvent or mixture): 34300 µg/mL (≈ 56900 µM) | solubility ([9]; ethanol, organic solvent or mixture): 8380 µg/mL (≈ 13900 µM) | solubility ([9]; heptane, organic solvent or mixture): 865 µg/mL (≈ 1440 µM) | Crystallization technique: Evaporations ([10]; 1-Butanol): Amorphous | Crystallization technique: Evaporations ([10]; 2-Methyl Tetrahydrofuran, WC = weakly crystalline): Form A (WC) | Crystallization technique: Evaporations ([10]; 2-Propanol): Amorphous | Crystallization technique: Evaporations ([10]; 40% Ethanol / 60% Water (% v/v) calc. aw = 0.7): Amorphous | Crystallization technique: Evaporations ([10]; 50% 2-Propanol / 50% Heptane (% v/v)): Amorphous | Crystallization technique: Evaporations ([10]; 50% Acetonitrile / 50% Water (% v/v) calc. aw = 0.9): Amorphous | Crystallization technique: Evaporations ([10]; 50% Ethanol / 50% Heptane (% v/v)): Amorphous | Crystallization technique: Evaporations ([10]; 70% 2-Propanol / 30% Water (% v/v) aw = 0.8): Amorphous | Crystallization technique: Evaporations ([10]; 95% 2-Propanol / 5% Heptane (% v/v), WC = weakly crystalline): Form A (WC) | Crystallization technique: Evaporations ([10]; 95% Heptane / 5% 2-Propanol (% v/v)): Amorphous | Crystallization technique: Evaporations ([10]; 95% Methanol / 5% Water (% v/v) calc. aw = 0.2): Amorphous | Crystallization technique: Evaporations ([10]; Acetone, WC = weakly crystalline): Form A (WC) | Crystallization technique: Evaporations ([10]; Acetonitrile): Amorphous | Crystallization technique: Evaporations ([10]; Ethanol, WC = weakly crystalline): Form A (WC) | Crystallization technique: Evaporations ([10]; Ethyl Acetate (dry)): Amorphous | Crystallization technique: Evaporations ([10]; Methanol): Amorphous | Crystallization technique: Evaporations ([10]; Methylethyl Ketone): Amorphous | Crystallization technique: Evaporations ([10]; Methylisobutyl Ketone): Amorphous | Crystallization technique: Evaporations ([10]; Toluene): Amorphous | Crystallization technique: Evaporations ([10]; n-Heptane): Amorphous | Crystallization technique: Evaporations ([10]; tert-Butylmethyl Ether, WC = weakly crystalline): WC (Pattern E)

CC(=O)c1nn(CC(=O)N2[C@H](C(=O)Nc3nc(Br)ccc3C)C[C@@]3(C)C[C@@H]23)c2ccc(-c3cnc(C)nc3)cc12 [Form B]
1 week stability: 40° C./75% RH HPLC (uncapped) ([2]; 1 week): 99.8% (by % (by relative area) | 1 week stability: 80° C. HPLC (capped) ([2]; 1 week): 99.9% (by % (by relative area) | 1 week stability: 80° C. XRPD (capped) ([2]; 1 week): Form B | 1 week stability: Ambient conditions HPLC (capped) ([2]; 1 week): 99.8% (by % (by relative area) | 1 week stability: Ambient conditions XRPD (capped) ([2]; 1 week): Form B | 1 week stability: 40° C./75% RH XRPD (uncapped) ([2]; 1 week): Form B | Stability: changes by XRPD or HPLC purity ([2]; stored at 40° C./75% RH, 80° C. or under ambient conditions): No changes | Form change upon grinding (XRPD) [11]: did not change form | Thermal events from SSCI report: thermal event temperature ([6]; SSCI report, event not named): ~176 °C | DSC: Melting [6]: Melting 178.4 °C | DSC: Melting (peak) [6]: (peak 186.3° C.) | PLM [12]: Birefringent rods

Reference: patent US11807627B2, “Morphic forms of complement factor D inhibitors” (priority 2018, dated 2023)
